Data from PMC7865305, “Pseudopeptide Amyloid Aggregation Inhibitors: In Silico, Single Molecule and Cell Viability Studies” (International Journal of Molecular Sciences, 2021).
Square brackets hold non-standard residues; d marks the D form. Peptide text beside a SMILES is read from it. * marks the point of attachment. NMeF = CN[C@@H](Cc1ccccc1)C(=O)O; Myristoyl = CCCCCCCCCCCCCC(=O)*; NMeL = CN[C@@H](CC(C)C)C(=O)O; Orn = NCCC[C@H](N)C(=O)O; Dab = NCC[C@H](N)C(=O)O; βAla = NCCC(=O)O

Key:
HT22 cells [1] = experiment: SG inhibitor toxicity, MTT assay; format: cell-based, mouse; details: 24 h; for HT22 cell viability, inhibitor alone: HT22 cells, 2.5, 5.0 and 10.0 µM, MTT, n = 4, vs control, one-way ANOVA with Dunnett
Protocol: (§1) The MTT assay was used to evaluate the viability of HT22 cells exposed to inhibitor or mixtures of inhibitor with full length Aβ(1–42). HT22 cells were plated into 96-well cell culture plates at a cell density of 100,000 cells/mL in full growth media (DMEM/F12, with 10% FBS, 1% Pen/Strep) at 37°C, 5% CO2, until 80% confluence (20–22 h). Full growth media was exchanged for treatment media (containing Aβ or Aβ with SG inhibitor). After treatment, cells are then returned to incubator for 24 h. The media was then exchanged for phenol red-free DMEM/F12 containing 0.5 mg/mL MTT. Cells were returned to the incubator to metabolize the MTT for 3.5 h, after which, cells were solubilized in isopropanol, with 10% Triton X-100 and 0.1 M HCl. After solubilization, absorbance from the 96-well plates was read in Molecular Dynamics™ plate reader at 570 nm and 690 nm. The signal at 690 nm and media control was subtracted from the 570 nm reading prior to analysis. HT22 cells were a generous gift from Dr. Robert Cumming, PhD, University of Western Ontario.
Inhibitor toxicity to HT22 cells was assessed by treating cells with inhibitor (SGA1, Myr-SGA1, SGA3, Myr-SGA3 or SGC1) at concentrations of 2.5, 5.0 and 10.0 µM for 24 h in triplicates, for n = 4 repeats. One-way ANOVA with Dunnett’s multiple comparisons test was performed to establish significance between inhibitor groups and vehicle-treated control, threshold for significance: α = 0.05. To assess SG inhibitor neuroprotection against Aβ(1–42) oligomers, Aβ(1–42) alone or Aβ(1–42) mixed with each inhibitor at the ratios described above were applied to cells in quadruplicates for n = 3 repeats. One-way ANOVA with Dunnett’s multiple comparisons was performed to establish significance between Aβ-SG inhibitor mixture and Aβ-treated control; threshold for significance: α = 0.05.

[2] = test system: Aβ(1–42)-Aβ(1–42) dimerization; parameters: method as in 2 sources, ref [21] = [21]; PMID 24321883; doi:10.1016/j.bios.2013.10.060; 21. Hane F.T. Lee B.Y. Petoyan A. Rauk A. Leonenko Z. Testing synthetic amyloid-β aggregation inhibitor using single molecule atomic force spectroscopy Biosens. Bioelectron. 2014 54 492 498 10.1016/j. ||| ref [30] = [30]; PMID 28844735; doi:10.1016/j.bbapap.2017.07.022; 30. Robinson M. Mehrazma B. Opare S.K.A. Petoyan A. Lou J. Hane F.T. Rauk A. Leonenko Z. Pseudo-peptide Amyloid-β Blocking Inhibitors: Molecular Dynamics and Single Molecule Force Spectroscopy Study B; details: cited from earlier work; for Shift of Aβ binding probability across unbinding force distribution / Binding probability of Aβ: SMFS, ref [30]; for Binding probability of Aβ: no significant difference between inhibitors
HT22 cells [3] = format: cell-based, mouse; details: MTT; for HT22 cell viability with Aβ(1–42) and myristoylated inhibitor: 5 µM Aβ(1–42) with Myr-SG inhibitor, 24 h, Figure 7B, n = 3
Protocol: as §1
Aβ(1–42) oligomers were prepared following protocols adapted from Stine et al.. Briefly, Aβ(1–42) was dissolved in HFIP to 1 mg/mL solution and aliquoted into microcentrifuge tubes, and allowed to evaporate under desiccant for 24 h, leaving behind a thin film of Aβ(1–42) monomers, which was stored at […] under desiccant. Immediately prior to use, Aβ(1–42) monomers were suspended in dimethyl sulfoxide (DMSO) at a concentration of 5 mM, vortexed for 30 s, pulse centrifuged for 30 s and then sonicated for 10 min at room temperature. The 5 mM Aβ(1–42) monomer solution prepared in DMSO was then diluted to 100 µM in cold DMEM/F12 media, then further diluted to 5 µM in fresh DMEM/F12 or DMEM/F12 containing SG inhibitor at various concentrations corresponding to a final ratio of 5:1, 2:1, 1:1 and 1:2 Aβ to SG. […]
Inhibitor toxicity to HT22 cells was assessed by treating cells with inhibitor (SGA1, Myr-SGA1, SGA3, Myr-SGA3 or SGC1) at concentrations of 2.5, 5.0 and 10.0 µM for 24 h in triplicates, for n = 4 repeats. […]

Aβ(1–42) [4] = details: AFM, 110 μM Aβ(1–42), 1:1 ratio, 1, 6 and 24 h on mica, vs Aβ-only control; ref [21]; cited from earlier work
Protocol: In Hane et al., solutions of Aβ(1–42) (prepared by the Fezoui method) with and without SGA1 were deposited onto freshly cleaved mica at 1:1 ratio with a final concetration of 110 μM Aβ(1–42), and then incubated for 1, 6 and 24 h, before being washed, dried and than imaged by AFM (Figure 4, adapted with permission).

Aβ(1–40) = details: ThT fluorescence, 25 μM Aβ(1–40), 37 °C, 5 to 7 days; ref [33]; cited from earlier work
Protocol: (§2) Experimental validation of the effect of SGA1 on amyloid aggregation and structure was performed previously by several methods: including ThT fluorescence, circular dichroism (CD), Western blot and AFM imaging. The influence of SGA1 on Aβ(1–40) and Aβ(1–42) aggregation by ThT fluorescence assay was performed at a concentration of 25 μM Aβ(1–40) and Aβ(1–42) at 37 °C for 5 to 7 days, across a broad range of SG inhibitor concentration to determine the IC50 inhibitory ligand:Aβ ratio [33]. For SGA1, the IC50 ligand:Aβ(1–40) ratio occurred at 0.2, while the control, N-methylated KLVFF peptide (A ...

Aβ(1–42) [5] = details: ThT fluorescence, 25 μM Aβ(1–42), 37 °C, 5 to 7 days; ref [33]; cited from earlier work
Protocol: as §2, with “[33].” for “[33]. For SGA1, the IC50 ligand:Aβ(1–40) ratio occurred at 0.2, while the control, N-methylated KLVFF peptide (A ...”

Molecule | IC50 (HT22 cells [1]) [µM] | HT22 cell viability, inhibitor alone (HT22 cells [1]) | Shift of Aβ binding probability across unbinding force distribution [2] | Binding probability of Aβ [2] | HT22 cell viability with Aβ(1–42) and myristoylated inhibitor (HT22 cells [3]) | Fibril length of Aβ(1–42) aggregates (Aβ(1–42) [4]) | Number of Aβ binding events ([2]; SMFS proof-of-concept study, ref [21]) | IC50 ligand:Aβ(1–40) ratio (Aβ(1–40)) | IC50 inhibitory ligand/Aβ1–42 ratio (Aβ(1–42) [5]) | Effect on Aβ(1–42) toxicity (HT22 cells [3]; 5 µM Aβ(1–42), Aβ/SG 5:1, 2:1, 1:1, 1:2, 24 h, n = 3, vs Aβ-treated group)
CCCCCCCCCCCCCC(=O)N[C@@H](CCN)C(=O)N[C@@H](CCCN)C(=O)N(C)[C@@H](CC(C)C)C(=O)N[C@@H](Cc1ccccc1)C(=O)N(C)[C@@H](Cc1ccccc1)C(=O)N[C@@H](CC(C)C)C(=O)N1CCC[C@H]1C(=O)NCCC(=O)O [Myr-SGA1] (Myristoyl-[Dab][Orn][NMeL]F[NMeF]LP[βAla]-OH; N-terminus and C-terminus assumed) | ~7.5 | significant reductions in HT22 cell viability at 5 and 10 µM | decreased the binding probability at higher force | reduced the binding probability of Aβ | below 30% | – | – | – | – | –
CCCCCCCCCCCCCC(=O)N[C@@H](CCN)C(=O)N[C@@H](CCCN)C(=O)N(C)[C@@H](CC(C)C)C(=O)N[C@@H](Cc1ccccc1)C(=O)N(C)[C@@H](Cc1ccccc1)C(=O)N[C@@H](CC(C)C)C(=O)N[C@@H](C)C(=O)N[C@@H](CCC(=O)O)C(N)=O [Myr-SGA3] (Myristoyl-[Dab][Orn][NMeL]F[NMeF]LAE-NH2; C-terminus assumed) | ~7.5 | significant reductions in HT22 cell viability at 5 and 10 µM | – | – | below 30% | – | – | – | – | –
CC(=O)N[C@@H](CCN)C(=O)N[C@@H](CCCN)C(=O)N(C)[C@@H](CC(C)C)C(=O)N[C@@H](Cc1ccccc1)C(=O)N(C)[C@@H](Cc1ccccc1)C(=O)N[C@@H](CC(C)C)C(=O)N1CCC[C@H]1C(=O)NCCC(=O)O [SGA1] (Ac-[Dab][Orn][NMeL]F[NMeF]LP[βAla]-OH; N-terminus and C-terminus assumed) | – | no significant reduction in cell viability was observed | – | – | – | greatly reduced | decreases the number Aβ binding events in a concentration dependent manner | 0.2 | 0.5 | –
CC(=O)N[C@@H](CCN)C(=O)N[C@@H](CCCN)C(=O)N(C)[C@@H](CC(C)C)C(=O)N[C@@H](Cc1ccccc1)C(=O)N(C)[C@@H](Cc1ccccc1)C(=O)N[C@@H](CC(C)C)C(=O)N[C@@H](C)C(=O)N[C@@H](CCC(=O)O)C(N)=O [SGA3] (Ac-[Dab][Orn][NMeL]F[NMeF]LAE-NH2; N-terminus and C-terminus assumed) | – | no significant reduction in cell viability was observed | more uniformly reduced binding probability across the unbinding force distribution | reduced the binding probability of Aβ | – | – | – | – | – | –
Glu-Ala-(Me)Phe-Phe-(Me)Phe-Leu-Orn-Daba [SGC1] | – | – | increased the binding probability at higher force | reduced the binding probability of Aβ | – | – | – | – | – | no statistically significant effect
